Results reported in patent publication US12697349B2, “Compositions and methods for treating RAS-mutant cancers” (MEMORIAL SLOAN KETTERING CANCER CENTER, priority 2019, dated 2026).

Columns and labels:
mPDAC cells = assay: In vitro growth inhibition by auranofin, CellTiter-Glo viable cell numbers; type: cell-based, murine; settings: 72 hr, increasing doses, normalized to DMSO-treated cells
Method: (§1) Relative proliferation was calculated by measuring viable cell numbers, and normalizing to the viable cell numbers of DMSO-treated cells, which were set to 1. Relative proliferation was then plotted as a function of auranofin concentration and fit to an exponential curve.
(§2) Proliferation assays. Competitive proliferation assays using shRNAs in TRMPV-Neo vector (with miR-30 or miR-E backbone) were performed as described previously (Huang et al., Genes Dev. 28(16): 1800-1814 (2014)). Assays for in vitro growth inhibition by auranofin or piperlongumine were performed by counting the viable cell numbers using CellTiter-Glo Luminescent Cell Viability Assay (Promega) after incubation of cells in the presence of increasing concentrations of auranofin or piperlongumine for 72 hr. Proliferation rates were calculated by dividing viable cell numbers at 72 hr by the viable cell numbers at 0 hr. Relative proliferation rates were calculated by normalizing to the proliferation rate of vehicle-treated cells.
Auranofin is an inhibitor of enzymatic activity of TXNRD1 (See Gromer et al., J Biol Chem 273(32): 20096-20101). Myricetin, manumycin A and protoporphyrin IX are also inhibitors of enzymatic activity of TXNRD1. mPDAC cells were treated with the TXNRD1 inhibitor auranofin or DMSO for 72 hr, and viability was measured. DMSO treatment served as a negative control causing a lack of growth inhibition. […]

[1] = test system: KRas^G12D; p53^-/- pancreatic cancer organoid tumors; assay: In vivo drug treatment, KRas^G12D; p53^-/- pancreatic cancer organoids transplanted into the pancreas; set-up: species or system mice; settings: 10 mg/kg, one per day, 5 days per week, intraperitoneal, 1 week, versus vehicle
Method: KRas^G12D; p53^−/− organoids were transplanted in recipient mice, and the mice were treated with vehicle only or auranofin (n=3-4) for 1 week. Tumor weights were measured and plotted.
(§3) In vivo drug treatment experiments. For auranofin treatment trials, 16 mg auranofin was first solved in 4 mL ethanol, and then diluted with 12 mL PBS to a final concentration of 1 mg/ml. Mice were given daily auranofin (10 mg/kg) or a similar volume of vehicle by intraperitoneal injection. The sick animals were sacrificed and pancreatic tissues and tumors were used for further analysis.
(§4) Growth inhibitory effects of pharmacological TXNRD1 inhibition was also examined in additional murine PDAC models generated by transplanting KRas^G12D; p53^−/− pancreatic cancer organoid lines into the pancreas of recipient mice. Mice were treated either with vehicle only, acting as a negative control, or auranofin. […] Thus, TXNRD1 is required for the maintenance of KRAS-mutant tumors and dependency in vivo.

[2] = test system: MIAPaCa-2 (KRAS^G12C) and PSN1 (KRAS^G12R) pancreatic cancer cell lines; assay: Drug combination growth inhibition and synergy analysis (CompuSyn, Combination Index); type: cell-based, human; settings: KRAS-mutant pancreatic cancer cells MIAPaCa-2 and PSN1
Text: Data presented as mean of three independent experiments (n=3). […] Each CI score represents data from at least three independent experiments.
CompuSyn software (Version 1.0) (http://www.combosyn.com), which is based on the Median-Effect Principle and the Combination Index-Isobologram Theorem was used to analyze drug synergism. Combination index (CI) values CI>1 indicates antagonism; CI=0.75-1.25 indicates additive effects; and <1 indicates synergism. Each GI (Growth inhibition) or CI score represents data from at least three independent experiments.

[3] = test system: human pancreatic cancer cell lines (KRAS mutant and wild-type KRAS); assay: In vitro growth inhibition by auranofin or piperlongumine in a panel of pancreatic cancer cell lines; type: cell-based
Method: as §1, with “curve. L3.3, Colo357, and BXPC3 have wild-type KRAS, and rest of the cell lines harbor a KRAS mutation.” for “curve.”
Cancer cells harboring different KRAS mutations (G12C, G12D, G12V) or wild-type allele were assayed. Relative proliferation was calculated by measuring viable cell numbers, and normalizing to the viable cell numbers of DMSO-treated cells, which were set to 1. Relative proliferation was then plotted as a function of auranofin concentration and fit to an exponential curve.
as §2
Since the screening system discussed above and FIGS. 1A-3B was driven by mutant Kras, p53 loss and Myc overexpression, whether alterations in either gene could dictate sensitivity to TXNRD1 inhibition was investigated. Twelve pancreatic cancer cell lines were treated with increasing concentration of auranofin or DMSO. Among the cell lines used in this experiment L3.3, Colo357, and BXPC3 have wild-type KRAS. The cell lines PANC0327, MIAPaCa-2, PANC0213, ASPC1, 8898, CFPAC-1, L3.6pl, PANC1 and SU8686 harbored KRAS mutations.
To understand whether the observed difference between sensitivities of wild-type KRAS cells and KRAS mutant cells, was statistically significant, the IC50 data of the relative sensitivity of human PDAC cell lines to TXNRD1 inhibition by auranofin was compared. […] To understand the effect of KRAS mutations (G12C, G12D, G12V) on auranofin sensitivity, human pancreatic cancer cells harboring different KRAS mutations (G12C, G12D, G12V) or wild-type were treated with another TXNRD1 inhibitor piperlongumine.

MIAPaCa-2 (KRAS mutant) = assay: In vivo drug treatment, human xenograft model (KRAS mutant); set-up: species or system mice; settings: auranofin 10 mg/kg intraperitoneal, 2 weeks, versus vehicle
Method: MIAPaCa-2 (KRAS mutant) or Colo357 (KRAS wild-type) organoids were transplanted into the pancreases of recipient mice. The mice were treated with vehicle only or auranofin (n=5) for 2 weeks. Tumor weights were measured and plotted.
as §3, §4

| Compound | growth inhibition of mPDAC cells (relative proliferation) (mPDAC cells) | tumor growth (tumor weights) [1] | antiproliferative effect [2] | correlation of anti-proliferative response (IC50) with KRAS mutational status ([3]; human PDAC cell lines, n=12) | correlation of response (IC50) with p53 mutational status or MYC mRNA expression ([3]; human pancreatic cancer cell lines, n=9) | sensitivity to auranofin, KRAS mutant versus wild-type KRAS cells ([3]; twelve pancreatic cancer cell lines, 72 hours, increasing concentration) | tumor growth inhibition (tumor weights) (MIAPaCa-2 (KRAS mutant)) | sensitivity to piperlongumine, KRAS mutant versus wild-type KRAS cells ([3]; cells with KRAS G12C, G12D, G12V or wild-type, 72 hours) |
| --- | --- | --- | --- | --- | --- | --- | --- | --- |
| CC(=O)OC[C@H]1O[C@@H]([S-])[C@H](OC(C)=O)[C@@H](OC(C)=O)[C@@H]1OC(C)=O.CCP(CC)CC.[Au+] [auranofin] | inhibited growth of mPDAC cells at submicromolar concentration | triggered a delay in Kras-mutant tumor growth | antiproliferative effects | significant correlation | no significant correlation | KRAS mutant cells were generally more sensitive to auranofin than the wild-type KRAS cells | growth inhibitory effects of pharmacological TXNRD1 inhibition was found | – |
| COc1cc(/C=C/C(=O)N2CCC=CC2=O)cc(OC)c1OC [piperlongumine] | – | – | – | – | – | – | – | KRAS mutant cells were more sensitive to piperlongumine than the wild-type KRAS cells |
